The source made the active and inactive calls. No cut-off for these calls is given here.

Here are results for eight compounds from ChEMBL document CHEMBL1146023, “Similar structure-activity relationships of quinoline derivatives for antiprion and antimalarial effects” (J Med Chem, 2006).

In series [1] the test system is Plasmodium falciparum. Briefly: Antimalarial activity against chloroquine-resistant Plasmodium falciparum FcB1 at 100 nM. Type of series: functional.
Series [2] deals with ScN2a. Briefly: Inhibition of scrapie prion formation in mouse ScN2a cell line. Format: functional.
For series [3], the system named is ScN2a. The experiment in a line: Selectivity index, toxicity against ScN2a cell line/EC50 for scrapie prion formation in mouse ScN2a cell line. Type of series: functional.
For series [4], the system named is ScN2a. Briefly: Toxicity against ScN2a cell line. Type of series: cell-based. As to conditions: mouse.
Series [5] concerns ScN2a. Briefly: Inhibition of scrapie prion formation in mouse ScN2a cell line relative to control. Format: functional, cell-based.
Series [6] has as its system ScN2a. The experiment in a line: Toxicity against ScN2a cell line at 10 uM. Type of series: cell-based. As to conditions: mouse.
The subject of series [7] is ScN2a. Briefly: Inhibition of scrapie prion formation in mouse ScN2a cell line at 200 nM. Type of series: functional, cell-based.
Series [8] relates to Plasmodium falciparum. The experiment in a line: microbe, parasite or virus in culture. As to conditions: FcB1.
Series [9] can be described thus: Toxicity against MRC5 cell line. Format: cell-based. As to conditions: human, MRC5 cells.
Another series concerns MRC5. The experiment in a line: Selectivity index, toxicity against MRC5 cell line/EC50 for scrapie prion formation in mouse ScN2a cell line. Format: functional.

In general, inhibition refers to the percentage by which the read-out fell short of the control. The low end stands for little suppression, the high end for strong suppression. As usually defined, the EC50 is the concentration giving half of the maximal effect. Lower therefore signals higher potency in that assay. `O=C(NCCCN1CCN(CCCNc2ccnc3cc(Cl)ccc23)CC1)C1c2ccccc2Oc2ccccc21`: the inhibition at 0.1 µM in the series on Plasmodium falciparum [1] is 11%. The Activity in the series on ScN2a [2] was 300 nM; with ScN2a [4], 750 nM. This compound also came in with a Selectivity index in the series with ScN2a [3] of 7.5. The compound also returned an EC50 in the series with ScN2a [5] of 100 nM.

Turning to `O=C(c1ccc2ccccc2c1)N(CCCN1CCN(CCCNc2ccnc3cc(Cl)ccc23)CC1)CC1CC1`, in the series with Plasmodium falciparum [1], the inhibition at 0.1 µM amounted to 23%. The Activity in the series on ScN2a [2] turned out to be 300 nM; with ScN2a [4], 2000 nM. This compound displayed a Selectivity index with ScN2a [3] of 26.67. The compound also showed an EC50 in the series on ScN2a [5] of 75 nM.

`O=C(NCCCN1CCN(CCCNc2ccnc3cc(Cl)ccc23)CC1)c1ccncc1`: the inhibition at 0.1 µM in the series with Plasmodium falciparum [1] amounted to 1%. Also, the Activity in the series on ScN2a [2] was 5000 nM; in the series on ScN2a [6], “Non-toxic”. Besides, the EC50 in the series on ScN2a [5] is 3000 nM.

Broadly, the IC50 is the concentration needed to halve the response being measured. `CC(C)(C)c1ccc(C(=O)NCCCN2CCN(CCCNc3ccnc4cc(Cl)ccc34)CC2)cc1`: the Activity came out at 200 nM in the series with ScN2a [2] and 1000 nM in the series on ScN2a [4]. In addition, the Selectivity index in the series on ScN2a [3] amounted to 10. Moreover, the midpoint of the response with ScN2a [5], the EC50, lay at 100 nM. Also, the result with ScN2a [7] was Active. This compound returned an IC50 in the series with Plasmodium falciparum [8] of 54.8 nM.

By CC50 is commonly meant the concentration at which the toxic effect on the cells reaches its halfway point. Low readings indicate greater toxicity to the cells, high ones lower toxicity to the cells. In the case of `COc1ccc(C(=O)NCCCN2CCN(CCCNc3ccnc4cc(Cl)ccc34)CC2)cc1`, it took 4 µM to reach half-maximal cytotoxicity in [9] (CC50). The values for the Activity in the series on ScN2a [2] and in the series with ScN2a [4] were 300 nM and 3000 nM, respectively. The Selectivity index with ScN2a [3] amounted to 30; in the series on MRC5, 40. Further, the EC50 in the series with ScN2a [5] turned out to be 100 nM.

On to `CCN(CC)CCCC(C)Nc1ccnc2cc(Cl)ccc12` (stereo unspecified) [CHLOROQUINE], for which, in series [9], the CC50 came to 50 µM. Further, the Activity is listed as 10000 nM with ScN2a [2] and “Non-toxic” with ScN2a [6]. Also, the EC50 in the series with ScN2a [5] was 4000 nM.

Turning to `O=S(=O)(NCCCN1CCN(CCCNc2ccnc3cc(Cl)ccc23)CC1)c1ccc(Cl)cc1`, the inhibition at 0.1 µM with Plasmodium falciparum [1] is 26%. The Activity turned out to be 500 nM with ScN2a [2] and 2000 nM with ScN2a [4]. The same compound had a Selectivity index in the series with ScN2a [3] of 8. Further, in the series on ScN2a [5], the EC50 amounted to 250 nM.

`O=C(NCCCN1CCN(CCCNc2ccnc3cc(Cl)ccc23)CC1)c1cccc(Oc2ccccc2)c1` yielded a CC50 in series [9] of 5 µM. Moreover, the Activity came out at 300 nM with ScN2a [2] and 750 nM with ScN2a [4]. In addition, the figures for the Selectivity index in the series on ScN2a [3] and with MRC5 were 3.75 and 25, respectively. In the series on ScN2a [5], this compound returned an EC50 of 200 nM.
